# Values quoted from earlier work as cited in patent US20210121517A1, “STABLE PARENTERAL DOSAGE FORM OF CETRORELIX ACETATE” (Sun Pharmaceutical Industries Limited, priority 2019, published 2021).
# Read-outs that look alike come from different tables or passages of the source.
# Conditions: 2.5 mg/ml
substance,measurement,setting,value
acetyl-D-3-(2′-naphtyl)-alanine-D-4-chlorophenylalanine-D-3-(3′-pyridyl)-alanine-L-serine-L-tyrosine-D-citruline-L-leucine-L-arginine-L-proline-D-alanine-amide [Cetrorelix acetate],time until aggregation was seen,"gluconic acid 0.71%, pH 3.1",12 days
same,time until aggregation was seen,"gluconic acid less than 0.07%, pH 3.7",≤ 2 days
